One assay addresses T1, REV-ERBα (Homo sapiens, UniProt P20393).
T1 construct: expressed in transfected cells; host or cells: HEK293T
T1 sequence (P20393 1-614): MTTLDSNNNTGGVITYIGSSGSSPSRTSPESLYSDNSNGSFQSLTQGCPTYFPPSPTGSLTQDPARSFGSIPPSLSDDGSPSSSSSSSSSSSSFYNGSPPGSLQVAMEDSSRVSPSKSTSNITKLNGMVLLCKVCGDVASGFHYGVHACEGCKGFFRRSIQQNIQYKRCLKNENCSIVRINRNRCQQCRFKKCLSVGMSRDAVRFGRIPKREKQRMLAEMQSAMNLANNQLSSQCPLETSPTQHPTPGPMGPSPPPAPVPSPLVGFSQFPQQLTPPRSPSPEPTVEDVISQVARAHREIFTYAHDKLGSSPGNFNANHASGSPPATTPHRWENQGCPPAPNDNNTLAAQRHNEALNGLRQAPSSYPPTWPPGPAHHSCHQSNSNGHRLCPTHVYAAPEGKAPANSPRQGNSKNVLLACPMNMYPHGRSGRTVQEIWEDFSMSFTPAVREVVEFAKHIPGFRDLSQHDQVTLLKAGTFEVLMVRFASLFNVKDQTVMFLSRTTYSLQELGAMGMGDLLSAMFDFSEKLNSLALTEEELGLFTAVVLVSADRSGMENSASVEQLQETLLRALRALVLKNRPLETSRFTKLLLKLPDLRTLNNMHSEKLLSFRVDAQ
Put plainly: Dual-luciferase Bmal-luc reporter assay in HEK293T cells transfected with REV-ERBα. Format: cell-based. The note with it: 10 μM. Here is the method: HEK293T cells were defrosted and maintained in DMEM supplemented with 10% FCS and 1% P/S at 37° C. and 5% CO2. Cells were plated in a 24-well plate (7·10^4 cells/well in 0.5 mL of DMEM+10% FCS). 24 h after seeding, cells were transfected with 100 ng of Bmal-luc, 10 ng of pRL-CMV Renilla as an internal control and 10 ng of REV-ERBα or the empty vector pcDNA3 as a control. All conditions were equalled to a total of 400 ng of DNA by using BSM. In order to prepare transfection samples, calculated amounts of DNA needed for each condition were prepared in Opti-MEM and Fugene was added in a 5:2 Fugene:DNA ratio. Mixtures were vortexed to assure homogeneity and left to incubate for 15 min at rt. Afterwards, each DNA mix was transferred into the 24-well plate containing the pre-seeded cells, with each condition repeated by triplicate. 5 h after transfection, cells were treated with compounds 2-12, AG1-AG5 or DMSO as vehicle. Solution of the compounds in DMEM were prepared at a double concentration than the final desired one, and 0.5 mL of these solutions were added to each well. 24 h after transfection, cells were lysed and luciferase activity was measured using Dual-Luciferase Reporter Assay System E2920 (Promega). To perform the experiment, cells were lysed by adding 50 μL of passive lysis buffer (PLB) (1:5 dilution) to each well and gently stirring for 30 min. Each cell lysate was transferred to a 96-well plate. 50 μL of Dual-Glo reagent were dispensed into each well, tapped gently to mix and incubated for 10 min. Luminescence of firefly luciferase was measured using a Tecan VICTOR Light Luminescent counter equipment. Then, 50 μL of Stop&Glo reagent were dispensed to quench firefly activity and activate Renilla luciferase, incubated for 10 min and measured. Firefly activity was normalized to Renilla luciferase activity. Results were analysed using Welch's corrected parametric t-test.
The method of Example 2 was repeated using Compounds 70 to 72 (generated as described in Example 1). Compounds 4, 7 and 11 (tested in Example 2) were used as a positive control for REV-ERB inhibitory activity, agonist compound AG2 (also tested in Example 2) and DMSO were also tested as comparators.
The method of Example 2 was repeated using Compounds 64 to 66, 69 and 70 to 73 (generated as described in Example 1). Once again, Compounds 4, 7 and 11 (tested in Example 2) were used as a positive control for REV-ERB inhibitory activity, agonist compound AG2 (also tested in Example 2) and DMSO were also tested as comparators.
The method of Example 2 was repeated using Compounds 16 to 19, 27, 28 and 44 (generated as described in Example 1). Once again, Compounds 4, 7 and 11 (tested in Example 2) were used as a positive control for REV-ERB inhibitory activity, agonist compound AG2 (also tested in Example 2) and DMSO were also tested as comparators.

A further assay deals with NK cells. Kind of assay: NK cells development assay (Lin− bone marrow cells co-cultured with OP9 stromal cells, flow cytometry). Format: cell-based, mouse. Here is the method: Mice. All mice used in this study were wild type on a C57BL/6 background, between six and twelve weeks old. All animal husbandry and experimental procedures were performed according to UK Home Office regulations and institute guidelines.
OP9 cell line and cell culture. OP9 is a stromal cell line from mouse bone marrow known to support lymphocyte differentiation of hematopoietic progenitors when co-culturing with them. OP9-GFP cells were cultured in Iscove's Modified Dulbecco's Medium (IMDM) (Sigma-Aldrich) supplemented with 20% Fetal Bovine Serum (FBS) and 1% Penicillin/[…] (P/S). They were split into 24-well plates with 2500 cells per well two days before transferring Lin− cells onto them. Cells were kept in a 5% CO2 humidified atmosphere at 37 QC. Lineage negative cells isolation from bone marrow. Mouse leg and hip bones were crushed in Phosphate Buffered Saline (PBS) with 2% FBS to release bone marrow cells. Cell suspension was filtered through a […] strainer, topped up to 40 mL with PBS+2% FBS and centrifuged at 500×g for 4 minutes. Cells were resuspended in 2 mL PBS+2% FBS and stained with phycoerythrin (PE)-conjugated cocktail (20 μL anti-B220 (RA3/6B2), 20 μL anti-CD2 (RM2-5), 20 μL anti-Ter119 (TER119), 20 μL anti-NK1.1 (PK136), 5 μL anti-CD11b (M1/70) and 5 μL Gr1 (RB6-8C5) antibodies (all from eBioscience) for 5 minutes at 4° C. Then, cells were washed, centrifuged and incubated with anti-PE Microbeads (Miltenyi) for 15 minutes at 4° C. Next, cells were washed with PBS and passed through LD column (Miltenyi), enabling the negative selection of unstained Lin− cells that flowed through the column. 50 μL of cells were taken to check the purity after depletion using flow cytometry. In vitro NK cell development from lineage negative cells. Lin− cells were plated in 24-well plates with 5×10^5 cells in 1 mL of Dulbecco's Modified Eagle Medium (DMEM) (Sigma-Aldrich) supplemented with 10% embryonic stem cell-qualified FBS (ES-FBS), 1% P/S, 50 μM β-Mercaptoethanol (β-ME), 10 ng/ml Flt3-ligand (Flt3L) (R&D Systems), 10 ng/mL IL-7 (R&D Systems) and 100 ng/mL stem cell factor (SCF) (R&D Systems) per well and cultured for 2 days. Cells were transferred for co-culture with OP9-GFP stromal cells in 24-well plates with 3×10^4 cells in 1 mL of Alpha MEM (Sigma-Aldrich) supplemented with 20% ES-FBS, 1% P/S, 50 μM β-ME and 10 ng/mL IL-15 (R&D Systems) per well and cultured for […]. Compounds were added on day 2, at the same time as cells were transferred together with OP9. Supernatant was removed on day 5, and new media was added with compound. Cells were kept in a 5% CO2 humidified atmosphere at 37° C.
Flow cytometry. After being cultured for 7 days, cells were harvested, filtered through 40 μm strainers to remove OP9 cells and washed with PBS. After centrifuging at 500×g for 5 minutes at 4° C., they were stained with appropriate fluorochrome conjugated antibodies with 1:300 dilution in 100 μL of fluorescent activated cell sorting (FACS) buffer (PBS with 1% BSA) for 15 minutes at 4° C. in the dark. Antibodies include CD3(e450), NK1.1(APC), NKp46(Percp e710) and PI, all of which are anti-mouse and from eBioscience. Cells were then washed in 1 ml FACS buffer, centrifuged and resuspended in 300 μL FACS buffer. Compensation was set up using Anti-Mouse Ig, k and Anti-Rat/Hamster Ig, k Compensation Particles Set (BDTM Combead). Flow cytometry analysis was carried out using BD LSRFortessa™ cell analyser (Becton Dickinson Bioscience) and data analysis was performed using FlowJo.
The method of Example 7 was repeated using 5 μM of Compounds 7 and 11, and 5 and 10 μM of Compound 72.

The mark [1] stands for this setting: FIG. 3, three independent experiments in triplicate, comparison with SR8278.
Where [2] appears, read: FIG. 4, two independent experiments in triplicate, comparison with SR8278.
[3] abbreviates: FIG. 7, three independent experiments in triplicate.
The mark [4] stands for this setting: 5 μM, FIG. 10, compared with SR8278.
Where [5] appears, read: 10 μM, FIG. 9, compared with SR8278.
The mark [6] stands for this setting: FIG. 10 legend, concentration not stated there (5 μM for 7 and 11, 5 and 10 μM for 72), compared with SR8278 and AG2.

Entries after “also recorded” stand apart in the source; their conditions may differ.

Turning to `CCOC(=O)C1Cc2ccccc2CN1C(=O)c1ccco1` (racemic) [Compound 7, Ethyl 2-(furan-2-carbonyl)-1,2,3,4-tetrahydrolsoquinoline-3-carboxylate], the results for the “Effect on REV-ERBα activity (Bmal-luc luciferase expression)” value (“Effect on REV-ERBα activity” below) at REV-ERBα (setting [1]), on REV-ERBα (setting [2]) and at REV-ERBα (setting [3]) were “significant increase in luciferase expression compared with SR8278; also recorded: significant antagonistic activity”, “significant antagonistic activity” and “significant antagonistic activity”, respectively. In addition, the “Total number of NK cells” value is “significant increase in the total number of NK cells compared with SR8278” in the assay on NK cells (setting [4]), “significant increase in NK cell number” in the assay with NK cells (setting [5]) and “significant increase in NK cell number” with NK cells (setting [6]).
With `CCOC(=O)C1Cc2ccccc2CN1C(=O)c1ccno1` (racemic) [Compound 8, Ethyl 2-(isoxazole-5-carbonyl)-1,2,3,4-tetrahydrolsoquinoline3-carboxylate], the “Effect on REV-ERBα activity” value on REV-ERBα (setting [1]) is “significant increase in luciferase expression compared with SR8278; also recorded: significant antagonistic activity”.
On to `CCOC(=O)C1Cc2ccccc2CN1C(=O)c1ocnc1C` (racemic) [Compound 11, Ethyl 2-(4-methyloxazole-5-carbonyl)-1,2,3,4-tetrahydrolsoquinoline-3-carboxylate], for which the entries for the “Effect on REV-ERBα activity” value on REV-ERBα (setting [1]), at REV-ERBα (setting [2]) and at REV-ERBα (setting [3]) were “significant increase in luciferase expression compared with SR8278; also recorded: significant antagonistic activity”, “significant antagonistic activity” and “significant antagonistic activity”, respectively. Moreover, the “Total number of NK cells” value was “significant increase in the total number of NK cells compared with SR8278” in the assay on NK cells (setting [4]), “increase in the total number of NK cells compared with SR8278” in the assay on NK cells (setting [5]) and “significant increase in NK cell number” in the assay with NK cells (setting [6]).
Consider `CCOC(=O)C1Cc2ccccc2CN1C(=O)c1scnc1C` (racemic) [Compound 12, Ethyl 2-(4-methylthiazole-5-carbonyl)-1,2,3,4-tetrahydrolsoquinoline-3-carboxylate], for which the “Effect on REV-ERBα activity” value on REV-ERBα (setting [1]) was “significant increase in luciferase expression compared with SR8278; also recorded: significant antagonistic activity”.
In the case of `CCOC(=O)C1Cc2ccccc2CN1C(=O)c1cccnc1F` (racemic) [Compound 27], the “Effect on REV-ERBα activity” value on REV-ERBα (setting [3]) is on record as “Inhibitory effect on REV-ERB was observed; also recorded: significant antagonistic activity”.
The same measure, in the same setting: as for `CCOC(=O)C1Cc2ccccc2CN1C(=O)c1ccnc(C)c1` (racemic) [Compound 28], the entry is “Inhibitory effect on REV-ERB was observed; also recorded: significant antagonistic activity”.
As to `CCOC(=O)CN(Cc1ccccc1)C(=O)c1ccco1` (racemic) [Compound 72], at REV-ERBα (setting [2]), the “Effect on REV-ERBα activity” value is on record as “inhibitory effect on REV-ERB greater than that obtained using SR8278; also recorded: significant antagonistic activity”. The “Total number of NK cells” value with NK cells (setting [4]) is “significant increase in the total number of NK cells compared with SR8278”; in the assay on NK cells (10 μM, FIG. 10, compared with SR8278), “significant increase in the total number of NK cells compared with SR8278”; in the assay with NK cells (setting [6]), “significant increase in NK cell number”.
For `CCOC(=O)C1Cc2ccccc2CN1C(=O)c1cccc2ccccc12` (centres unmarked) [AG1], on REV-ERBα (setting [1]), the “Effect on REV-ERBα activity” value is on record as “agonists”.
For the compound `CSc1ccc(C(=O)N2Cc3ccccc3CC2COc2ccc(OC(C)(C)C)cc2)s1` (centres unmarked) [AG5], the “Effect on REV-ERBα activity” value is on record as “agonists” at REV-ERBα (setting [1]) and “agonist” on REV-ERBα (setting [3]).

Values taken from patent US12377119B2, “Natural killer cells” (IMPERIAL COLLEGE INNOVATIONS LIMITED, priority 2018, dated 2025).
